These results are taken from PubChem BioAssay AID1552 (Sanford-Burnham Center for Chemical Genomics, 2009).

The structures appear in SMILES notation. Active and inactive are the calls of the source. No rule for the calls is given here. A value given as a limit tells only on which side of the number the result lay.

The assay concerns the target Ubiquitin-conjugating enzyme E2 N (Homo sapiens) (UniProt P61088). Briefly: UBE2N binders by NMR, biophysical, purified protein (AID 1552). The note with it: NMR binding to purified UBE2N.

Chain of Ubiquitin-conjugating enzyme E2 N (Homo sapiens) (P61088 whole entry, looked up): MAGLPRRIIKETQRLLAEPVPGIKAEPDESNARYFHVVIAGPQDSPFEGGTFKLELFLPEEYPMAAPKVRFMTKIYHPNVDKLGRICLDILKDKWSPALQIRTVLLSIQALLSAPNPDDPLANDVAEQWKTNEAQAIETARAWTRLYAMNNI

One may read the Kd as the concentration at which binding is half-saturated. In the case of `O=C(O)c1ccc(Nc2nncc(=O)[nH]2)cc1`, the Kd is > 4 mM (inactive).

On to `Nc1ccc2c(c1)CCCC2=O`, for which the Kd was > 4 mM (inactive). In the case of `CC(=O)n1c(N)nc2ccccc21`, the Kd is > 4 mM (inactive). For `Nc1ccccc1-n1cccn1` the value was > 4 mM (inactive).

Take `NC(=O)c1cc(N)cc(C(N)=O)c1`: the Kd is > 4 mM (inactive). For `CCCCn1c(=O)cc(O)c2ccccc21`, the Kd is > 4 mM (inactive).

As for `NC(=O)c1ccc(Cl)c(N2C(=O)CCC2=O)c1`, the Kd is > 4 mM (inactive). For `Cc1ccc(C(=O)N2CC(=O)NC(=O)C2)cc1` the value was > 4 mM (inactive); for `CC(CCC(=O)O)[C@H]1CCC2C3CC[C@@H]4C[C@H](O)CC[C@]4(C)C3C[C@H](O)[C@@]21C` (some centres undefined), > 4 mM (inactive). Under `CC(CCC(=O)O)[C@H]1CCC2C3C(C[C@H](O)[C@@]21C)[C@@]1(C)CC[C@@H](O)C[C@H]1C[C@H]3O` (some centres undefined) stands > 4 mM (inactive); under `NS(=O)(=O)c1ccccc1Cl`, > 4 mM (inactive); under `CN1CCC(NC(=S)NC2CC2)CC1`, > 4 mM (inactive). Take `COc1ccc([C@@H](C)C(=O)c2ccc(O)cc2O)cc1`: the Kd was > 4 mM (inactive). Under `NCc1nc2ccccc2s1` stands > 4 mM (inactive); under `O=C1CCC(=O)N1c1cccnc1`, > 4 mM (inactive); under `Cc1nc(N)sc1C(=O)Nc1nccs1`, > 4 mM (inactive).

As for `O=C(CSc1ccnc(=O)[nH]1)NCc1ccco1`, the Kd was > 4 mM (inactive). For `CC(=O)Nc1cccc(N2CCCC2=O)c1` the value was > 4 mM (inactive); for `CC(C)(C)C(=O)N1CCCC1C(=O)O` (centres undefined), > 4 mM (inactive). In the case of `NC1CS(=O)(=O)CC1O` (centres undefined), the Kd is > 4 mM (inactive). Take `O=c1cccc2n1CC1CC2CN2CCCC[C@@H]12` (some centres undefined): the Kd is > 4 mM (inactive). For `O=C(COc1ccccc1Cl)N1CCCC1` the value was > 4 mM (inactive); for `Cc1cc(N)n(-c2ccccc2)n1`, > 4 mM (inactive); for `Cn1ccc(NC(=S)NC2CCCC2)n1`, > 4 mM (inactive).

Consider `COc1c(F)c(F)c(-c2csc(N)n2)c(F)c1F`, for which the Kd was > 4 mM (inactive). For `S=C(Nc1ccccc1)Nc1nncs1` the value was > 4 mM (inactive). Turning to `COc1ccc2ccc(=O)oc2c1CC=C(C)C`, the Kd is > 4 mM (inactive). For `O=C(CC1CCCCC1)N1CCN(c2ccccn2)CC1` the value was > 4 mM (inactive); for `CNC[C@@H](O)c1ccc(O)c(O)c1`, > 4 mM (inactive).

Consider `Cc1cc(NC(=O)Cc2cccs2)no1`, for which the Kd was > 4 mM (inactive). Consider `CC(=O)N1CC2(C)CN(C(C)=O)CC(C)(C1)C2`, for which the Kd was > 4 mM (inactive). For `NC(=O)c1ccc(-c2csnn2)cc1` the value was > 4 mM (inactive); for `Cc1ccccc1NC(=S)NCCO`, > 4 mM (inactive); for `Cc1ccc(C)c(C(=O)NCc2ccncc2)c1`, > 4 mM (inactive).

As to `CC(=O)Nc1nnc(-c2ccncc2)s1`, the Kd was > 4 mM (inactive). For `Nc1cccnc1N1CCOCC1` the value was > 4 mM (inactive); for `O=c1cc(-c2ccccc2)oc2c(O)c(O)ccc12`, > 4 mM (inactive); for `COc1ccc(NC(=O)CCCC(=O)O)c(OC)c1`, > 4 mM (inactive). For `c1ccc(-c2nsc(N3CCCNCC3)n2)cc1` the value was > 4 mM (inactive); for `Cc1csc(NC(=O)c2ccoc2C)n1`, > 4 mM (inactive). For `Cc1nn(-c2ccccc2)nc1CO` the value was > 4 mM (inactive); for `CC(=O)NC(=S)Nc1ccc(S(N)(=O)=O)cc1`, > 4 mM (inactive); for `CC1(C)N=C2C(=N)C=CC=C2N1O`, > 4 mM (inactive). Take `Nc1cccc2nsnc12`: the Kd is > 4 mM (inactive). Under `CC(=O)Nc1cc2c(cc1C(=O)C(C)C)OCCO2` stands > 4 mM (inactive). Under `COc1cccc(=O)c2c(C)n(C)c(C)c12` stands > 4 mM (inactive); under `CC(=O)c1ccc(NC(=O)c2ocnc2C)cc1`, > 4 mM (inactive); under `Cc1cc(C)nc(N2CC(=O)N(C)C2=N)n1`, > 4 mM (inactive). Turning to `Nc1ccc(NS(=O)(=O)c2ccc(N)cc2)cc1`, the Kd was > 4 mM (inactive). On to `CC(C)(C)C(=O)Nc1ncc(C(F)(F)F)cc1Cl`, for which the Kd was > 4 mM (inactive). For `CC(=O)Nc1ccc(C(=O)NC2=NCCS2)cc1` the value was > 4 mM (inactive); for `CN(C)C1CCS(=O)(=O)C1` (centres undefined), > 4 mM (inactive). Under `CC(=O)Nc1cccc(-c2n[nH]c(=S)n2C)c1` stands > 4 mM (inactive). Under `O=C1C=CC(=O)N1c1ccc(N2CCOCC2)cc1` stands > 4 mM (inactive); under `COc1cc(C(=S)N2CCOCC2)ccc1O`, > 4 mM (inactive).

`Cc1ccc(CO)o1`: the Kd is > 4 mM (inactive). For `O=C(Nc1ccc(Cl)cn1)c1cnn2cccnc12` the value was > 4 mM (inactive). For `CC(=O)Nc1cccc(-c2nc3ccccc3c(=O)o2)c1`, the Kd is > 4 mM (inactive). As for `O=S(=O)(NCc1ccco1)c1cccc2cccnc12`, the Kd is > 4 mM (inactive).

For `OCc1ccc(-c2cccs2)s1`, the Kd was > 4 mM (inactive). With `COc1cnn(Cc2ccccc2)c(=O)c1Cl`, the Kd was > 4 mM (inactive). For `COc1c(-c2coc3cc4c(cc3c2=O)CC(OC(C)=O)C(C)(C)O4)ccc2c1C=CC(C)(C)O2` (centres undefined) the value was > 4 mM (inactive). For `O=C(Nc1ccccc1N1CCCC1)c1cccnc1`, the Kd was > 4 mM (inactive). Under `c1nnc2c3c4c(sc3ncn12)CCCC4` stands > 4 mM (inactive); under `COc1cc(CNC(=O)CCCC/C=C/C(C)C)ccc1O`, > 4 mM (inactive). Under `Cn1cc(Cl)c(C(=O)NC2CCCCCC2)n1` stands > 4 mM (inactive); under `CN1C(=O)C2CC=C(Cl)CC2C1=O` (centres undefined), > 4 mM (inactive); under `CC1(C)NC(=O)N(CN2CCOCC2)C1=O`, > 4 mM (inactive). As for `O=C1C=C(Nc2ccc(O)cc2)c2ccccc2C1=O`, the Kd is > 4 mM (inactive).

As to `Nc1cc(N)nc(SCc2cccnc2)n1`, the Kd is > 4 mM (inactive). Take `Cc1nc2sccn2c1C(=O)O`: the Kd is > 4 mM (inactive). Under `OCc1ccc2c(c1)OCO2` stands > 4 mM (inactive); under `CC1(C)C(=O)C=C[C@@]2(C)C1=C(O)C(=O)[C@]1(C)C2CC[C@@]2(C)[C@H](c3ccoc3)C[C@H]3O[C@]321` (some centres undefined), > 4 mM (inactive).

Take `COc1ccccc1NC(=O)C1CCCCC1`: the Kd was > 4 mM (inactive). Under `CC(C)=NNC(=O)C(=O)Nc1ccc(F)cc1` stands > 4 mM (inactive); under `Cn1c(CN2CC(c3ccccc3)CC2=O)n[nH]c1=S` (centres undefined), > 4 mM (inactive). In the case of `CCCn1c(C)cc(=O)[nH]c1=O`, the Kd is > 4 mM (inactive). For `O=C(O)c1csc2ccccc12`, the Kd is > 4 mM (inactive). For `Cc1cc2cc(N)ccc2[nH]1` the value was > 4 mM (inactive); for `CN1CN/C(=N\[N+](=O)[O-])N(c2ccccc2)C1`, > 4 mM (inactive). With `O=S(=O)(O)c1nc2ccccc2[nH]1`, the Kd is > 4 mM (inactive).

For the molecule `O=C(c1ccco1)N1CCN(c2ccc(Cl)cc2)CC1`, the Kd is > 4 mM (inactive). Under `O=C(Nc1ccccn1)C(=O)N1CCCC1` stands > 4 mM (inactive). On to `COc1cc(C/C=C/c2ccccc2)c(OC)cc1O`, for which the Kd was > 4 mM (inactive). Under `S=c1nc2c(n[nH]1)[nH]c1ccccc12` stands > 4 mM (inactive). For the molecule `Cn1nnc2cc(C(=O)N3CCSCC3)ccc21`, the Kd is > 4 mM (inactive).

With `COc1cc2ccc(=O)oc2c2ccoc12`, the Kd is > 4 mM (inactive). Regarding `COc1ccc(C)cc1S(N)(=O)=O`, the Kd was > 4 mM (inactive). Take `O=C(C1CCNCC1)N1CCCCCC1`: the Kd was > 4 mM (inactive). Under `O=S1(=O)CCC(Nc2ccccc2)C1` (centres undefined) stands > 4 mM (inactive); under `O=C(NCN1CCOCC1)c1cccnc1`, > 4 mM (inactive). `CCOC(=O)Nc1ccc2c(C)cc(=O)oc2c1`: the Kd was > 4 mM (inactive).

Take `N#Cc1cnn(-c2ccc(Cl)cc2)c1N`: the Kd was > 4 mM (inactive). As for `Cc1ccc(SCC(=O)N2CCOCC2)cc1`, the Kd is > 4 mM (inactive). For `Cc1csc(CCc2nc(C)cs2)n1` the value was > 4 mM (inactive); for `Nc1cccc(CC(=S)N2CCOCC2)c1`, > 4 mM (inactive); for `O=C(NC(=S)NC1CCSC1=O)c1ccco1` (centres undefined), > 4 mM (inactive).

Turning to `c1ccc(-n2nnnc2-n2cnc3ccccc32)cc1`, the Kd was > 4 mM (inactive). Under `COc1c2ccoc2cc2oc(C)cc(=O)c12` stands > 4 mM (inactive); under `NC(=O)c1c[nH]c2ccccc12`, > 4 mM (inactive); under `CCSc1nc(C)c(CC)c(C)c1C(N)=O`, > 4 mM (inactive). Under `CCOCC(=O)N1CCc2ccccc21` stands > 4 mM (inactive); under `S=C(Cc1cccnc1)N1CCOCC1`, > 4 mM (inactive). For `Fc1ccc(F)c(CN2CCN(c3ncccn3)CC2)c1`, the Kd is > 4 mM (inactive). For the molecule `O=C(O)CC[N+](=O)[O-]`, the Kd is > 4 mM (inactive). Turning to `O=c1[nH]cc(NCc2ccco2)c(=O)[nH]1`, the Kd was > 4 mM (inactive).

For the molecule `CC(=O)O[C@@H]1CC2C(C)(CC[C@H](O)C2(C)C)C2CC[C@]3(C)C(=CC(=O)O[C@H]3c3ccoc3)C21C` (some centres undefined), the Kd is > 4 mM (inactive). Take `CCOC(=O)c1c(C)nc2c(C#N)cnn2c1C`: the Kd is > 4 mM (inactive). For `COc1ccc(N/C(N)=N\c2nc(C)cc(C)n2)cc1` the value was > 4 mM (inactive).
